From patent US20050074485A1, “Anti-inflammatory/anti-microbial peptides for use in dialysis” (priority 2003, published 2005)
Entries after “also recorded” stand apart in the source; their conditions may differ. Where a SMILES comes first, the peptide text is derived from it. Bridges are numbered along the chain shown (N, C = ends). Roman numbers before positions name the chains, in order. Where no end group is shown, it is not given here. [ ]: non-standard residue; d: D form.

How the values were obtained:
[1] = cited from earlier work; for antipyretic potency relative to α-MSH (11-13): centrally administered, rabbit, Deeter et al. 1989
[2] = tested on: C. albicans (clinical isolate); test: C. albicans viability by colony forming units; type: cell-based, Candida albicans; conditions: 10^−6 M
Method: C. albicans (clinical isolate) were obtained from the collection of the Department of Microbiology, Ospedale Maggiore di Milano. C. albicans were maintained on Sabouraud's agar slants and periodically transferred to Sabouraud's agar plates and incubated for 48 hours at 28° C. To prepare stationary growth phase yeast, a colony was taken from the agar plate and transferred into 30 ml Sabouraud-dextrose broth and incubated for 72 hours at 32° C. Cells were centrifuged at 100×g for 10 minutes and the pellet was washed twice with distilled water. Cells were counted and suspended in Hank's balanced salt solution (“HBSS”) to the desired concentration. […] C. albicans (I×10^6/ml in HBSS) was incubated in the presence or absence of α-MSH [1-13], KPV, (SEQ. ID NO.1) or the (“KPV dimer”) at concentrations in the range of 10^−15 to 10^−4M for 2 hours at 37° C. Cells were then washed in cold distilled water and diluted with HBSS to a concentration of 100 organisms/ml. One ml aliquots were dispensed on blood agar plates and incubated for 48 hours at 37° C. Organism viability was estimated from the number of colonies formed.
Fluconazole is a well established antifungal agent. […] The peptides and fluconazole were tested in concentrations of 10^−6 M. There were at least six replicates for each concentration of peptide.

[3] = tested on: Staphylococcus epidermidis (ATCC 12228); test: Broth dilution turbidity test of growth inhibition; type: cell-based
Method: The following microorganisms were used in the Example: Candida albicans (ATCC 10231); Enterococcus faecalis (MDR) (ATCC 51299); Escherichia coli (ATCC 11229); Pseudomonas aeruginosa (ATCC 9027); Staphylococcus aureus (ATCC 6538); Staphylococcus epidermidis (ATCC 12228); and Streptococcus pyogenes Group A (ATCC 19615). These organisms were subcultured onto blood agar plates and incubated for 16-24 hours at 35±2° C. An inoculated needle or loop was touched to each of four or five well isolated colonies of the same morphological type, and the inoculum inoculated into 5 mL of MHB.
(§1) The broth cultures were then allowed to incubate at 35±2° C. until turbidity appeared (usually 2 to 5 hours). […] This turbidity is half the density of a McFarland number one standard and is often referred to as McFarland 0.5 standard (approx. 1.5×10^8 CFU/mL). This turbidity standard was agitated on a vortex mixer immediately before use. Sealed tubes were stored in the dark at room temperature and replaced if the inocula are shown (by count) to be aberrant.
The broth culture was further diluted to 1:200 in MHB broth (to obtain a final concentration of 10^5 to 10^6 CFU/mL). To determine the initial concentration of the organism in the above solution, serial dilutions were performed 1:10 in MHB four times to achieve a final dilution of 10^−4. […] Following the incubation period, the colonies were counted. […]

[4] = tested on: Candida albicans (ATCC 10231); test: Broth dilution turbidity test of growth inhibition; type: cell-based; conditions: turbidity after 16-20 hours at 35±2° C.
Method: (§2) These organisms were subcultured onto blood agar plates and incubated for 16-24 hours at 35±2° C. An inoculated needle or loop was touched to each of four or five well isolated colonies of the same morphological type, and the inoculum inoculated into 5 mL of MHB.
as §1
(§3) The broth culture was further diluted to 1:200 in MHB broth (to obtain a final concentration of 10^5 to 10^6 CFU/mL). To determine the initial concentration of the organism in the above solution, serial dilutions were performed 1:10 in MHB four times to achieve a final dilution of 10^−4. Aliquots 1.0 mL from each of the dilutions were placed in duplicate into sterile petri dishes. Approximately 15 to 20 mL of tempered (45±2° C.) MCTA agar media was added. The plates were incubated overnight at 35±2° C. for 16-20 hours. Following the incubation period, the colonies were counted.
(§4) These dilutions were developed according to the procedure: for each drug substance label 9 flasks (10 ml Volumetric) 1 through 9; for each sample add 3 mL of deionized (“DI”) water to a 10 mL volumetric flask; then transfer the amount of anti-microbial and anti-inflammatory peptides as specified below in Table 2; record the actual amount transferred in the laboratory notebook; and add the remaining amount of DI water to bring up to volume of 10 mL.
(§5) 100 μL of the anti-microbial and anti-inflammatory peptide solution from each of the flasks was then added to the correspondingly labeled well; to well number 10 add 100 μL sterile DI Water; and to all ten wells add 100 μL of inoculum created previously.
(§6) The procedure was repeated for each of the seven microorganisms tested.
(§7) Each well was tested for turbidity, as an indicator of growth.

[5] = tested on: Enterococcus faecalis (MDR) (ATCC 51299); test: Broth dilution turbidity test of growth inhibition; type: cell-based
Method: as §2, §1, §3, §4, §5, §6, §7

[6] = tested on: Streptococcus pyogenes Group A (ATCC 19615); test: Broth dilution turbidity test of growth inhibition; type: cell-based
Method: as §2, §1, §3, §4, §5, §6, §7

[7] = Hiltz et al. 1991; cited from earlier work
[8] = tested on: Staphylococcus aureus (ATCC29213); test: S. aureus viability by colony forming units; type: cell-based; conditions: 10^−15 to 10^−4M, 2 hours at 37° C.
Method: Staphylococcus aureus (ATCC29213) was obtained from the collection of the Department of Microbiology, Ospedale Maggiore di Milano. S. aureus (1×10^6/ml in HBSS) was incubated in the presence or absence of α-MSH [1-13] (SEQ ID NO: 6), α-MSH [11-13] (SEQ. ID NO. 1) or the KPV dimer (SEQ ID NO: 4) at concentrations in the range of 10^−15 to 10^−4M for 2 hours at 37° C. S. aureus were then washed in cold distilled water and diluted with HBSS to a concentration of 100 organisms/ml. One ml aliquots were dispensed on blood agar plates and incubated for 24 hours at 37° C. Organism viability was estimated from the number of colony forming units.

HIV transcription = conditions: 10^−5M; PMA (1 ng/mL) stimulated UI cells, 24 h
Excerpt: Total RNA was extracted by the guanidine thiocyanate phenol method using an RNA isolation kit (Tripure, Boehringer Mannheim, Indianapolis, Ind.), following the manufacturer's instructions. Ten ng of total RNA were separated by 0.8% agarose/formaldehyde gel electrophoresis and transferred onto nylon membrane. The filters were baked and hybridized for 18 hr with ^32P-labeled HIV-full length probe (kind gift of L. Turchetto and E. Vicenzi, S. Raffaele Hospital, Milan, Italy). The radiolabeling reaction was performed using a DNA labeling kit (Ready-to-go, Pharmacia Biotech, San Francisco, Calif.). Filters were washed and exposed to X-ray film for 5 days. The labeled probe was removed by washing at 80° C. in 0.1×SSC containing 0.1% sodium dodecyl sulphate and then rehybridized with (^32P-labeled glyceraldehyde-3-phosphate dehydrogenase) (GAPDH) cDNA probe. Densitometric analysis was performed using ImageMaster VDS 3.0 software (Pharmacia Biotech) and results were expressed as density units.

S. aureus = test: Urokinase-induced growth enhancement of S. aureus; type: cell-based, Staphylococcus aureus; conditions: 10^−6 M, recombinant human urokinase 500 U, four hours at 37° C.
Method: In this experiment, the influence of α-MSH on urokinase-induced growth-enhancement is determined. […] (SEQ. ID NO.1) at 10^−6 M. Appropriate dilutions of S. aureus were dispensed on agar plates and colonies counted after 24 hours incubation at 37° C.

[9] = tested on: HIV-1 infected promonocytic UI cell line; test: HIV-p24 release from TNF-α stimulated UI cells (ELISA); type: cell-based; conditions: 48 hr
[10] = in vivo
[11] = in vivo; remark: listed apart in the source
[12] = turbidity after 16-20 hours at 35±2° C.

10-13 sequence: α-MSH fragment formed by addition of glycine to α-MSH (11-13) (GKPV; ends and bridges not checked; UniProt P01189 147-150, looked up, fragment)
antipyretic potency relative to α-MSH (11-13) [1]: slightly decreased potency

HFRWGKPV (listed as Homo sapiens) [α-MSH [6-13]]
reduction of C. albicans viability in comparison with fluconazole [2]: most effective

ACTH (1-39): adrenocorticotropic hormone (SYSMEHFRWGKPVGKKRRPVKVYPAKEDDEASEAFPLEF; listed as Homo sapiens) [reference compound]
reduction of C. albicans viability in comparison with fluconazole [2]: did not reduce C. albicans viability

SYSMEHdFRWGKPV (SYSMEH[dF]RWGKPV; ends and bridges not checked) [Phe7]
effectiveness against the organism (in words) [3]: very effective
minimal effective concentration that completely inhibited growth [3, 12]: 10^−4 M
minimal effective concentration that completely inhibited growth [4]: 10^−3 M
effectiveness against the organism (in words) [5]: effective
minimal effective concentration that completely inhibited growth [5, 12]: 10^−3 M
effectiveness against the organism (in words) [6]: effective
minimal effective concentration that completely inhibited growth [6, 12]: 10^−4 M

[dK11] α-MSH (11-13)
anti-inflammatory potency relative to L-form tripeptide α-MSH 11-13 [7]: same general potency as the L-form

Lysine-Proline-Valine [KPV]
effectiveness against the organism (in words) [5]: effective
effectiveness against the organism (in words) [6]: effective
reduction of C. albicans viability in comparison with fluconazole [2]: most effective
S. aureus colony formation (CFU) [8]: inhibited S. aureus colony formation
reduction of spliced and unspliced HIV-1 RNA (HIV transcription): approximately 50%
urokinase-enhanced S. aureus colony formation (S. aureus): significantly inhibited the enhancing effect of urokinase; also recorded: significantly inhibited this urokinase-enhancing effect

SYSMEHFRWGKPV [α-MSH [1-13]]
reduction of C. albicans viability in comparison with fluconazole [2]: most effective
S. aureus colony formation (CFU) [8]: inhibited S. aureus colony formation
inhibition of p24 release ([9]; 10^−5 M, TNF-α (10 ng/mL) stimulated UI cells): 52.7%
p24 release from TNF-α stimulated UI cells (in words) ([9]; 10^−13 to 10^−4 M): significantly inhibited p24 release
urokinase-enhanced S. aureus colony formation (S. aureus): significantly inhibited this urokinase-enhancing effect
urokinase-enhanced S. aureus colony formation (S. aureus; listed as α-MSH): significantly inhibited the enhancing effect of urokinase

[Nle4 dPhe7]α-MSH [NDP]
potency in reducing fever relative to the parent peptide ([1]; Holdeman and Lipton 1985): approximately ten times more potent than the parent peptide
minimal effective concentration that completely inhibited growth [4]: 10^−3 M

8-13 sequence: α-MSH fragment 8-13 (RWGKPV; ends and bridges not checked; UniProt P01189 145-150, looked up, fragment)
antipyretic potency relative to α-MSH (11-13) [1]: greater than that of the 11-13 sequence

Met-Glu-His-Phe-Arg-Trp-Gly (EHFRWG; listed as Homo sapiens) [α-MSH [4-10], reference compound]
inhibition of C. albicans CFU [2]: approximately 50%

CC(=O)N[C@@H](CSSC[C@H](NC(C)=O)C(=O)N[C@@H](CCCCN)C(=O)N1CCC[C@H]1C(=O)N[C@H](C(N)=O)C(C)C)C(=O)N[C@@H](CCCCN)C(=O)N1CCC[C@H]1C(=O)N[C@H](C(N)=O)C(C)C [KPV dimer, Val-Pro-Lys-AcCys-s-s-CysAc-Lys-Pro-Val] (I: Ac-CKPV-NH2 / II: Ac-CKPV-NH2; disulfide I:1-II:1)
negative side effects [10]: without negative side effects
safety and tolerability [11]: remarkable safety of and tolerability

9-13 sequence: α-MSH fragment 9-13 (WGKPV; ends and bridges not checked; UniProt P01189 146-150, looked up, fragment)
antipyretic potency relative to α-MSH (11-13) [1]: almost devoid of activity

ACTH fragment (18-39): ACTH fragment (18-39) (PVKVYPAKEDDEASEAFPLEF; listed as Homo sapiens) [reference compound]
reduction of C. albicans viability in comparison with fluconazole [2]: did not reduce C. albicans viability
